Measured values reported in US20060079453A1, “Hla binding peptides and their uses” (priority 2002, published 2006).
pIC50: −log10 of the molar value. Read-outs that look alike come from different tables or passages of the source. No end group written: not given here.

Assays:
Assay in all cases: biochemical
Assay type in all cases: binding
HLA-DR DRB1*0101 (DR1) = HLA-DR DRB1*0101 (DR1) (Homo sapiens, UniProt P01903+P01911, A100R/D57E/F55L/F60I/F76Y/I96L/L162R/M171V/P40L/Q125E/R42F/V115G/Y59C)
HLA-DR DRB1*0401 (DR4) = HLA-DR DRB1*0401 (DR4) (Homo sapiens, UniProt P01903+P01911, A100K/A169T/F76Y/I96L/K127E/L162R/M171V/N62H/P40V/Q125Y/R42H/S133A/S149N/S66Y/V115G/V209L/W38E)
HLA-DR DRB1*0405 (DR4) = HLA-DR DRB1*0405 (DR4) (Homo sapiens, UniProt P01903+P01911, A100R/A169T/D86S/F76Y/I96L/K127E/L162R/M171V/N62H/P40V/Q125Y/R42H/S133A/S149N/S66Y/V115G/V209L/W38E)
HLA-DR DRB1*0701 (DR7) = HLA-DR DRB1*0701 (DR7) (Homo sapiens, UniProt P01903+P01911, A100R/A102G/A103Q/D57E/D86V/E43K/F76Y/K127E/L162R/M171V/P40G/Q125H/Q99D/R33Q/R42Y/R54Q/S133A/S66F/T210M/V115G/Y107V/Y59L/Y89S)
HLA-DR DRB1*0802 (DR8) = HLA-DR DRB1*0802 (DR8) (Homo sapiens, UniProt P01903+P01911, A100R/A103L/A169T/F76Y/H45Y/I96F/K41T/L162R/M171V/P40S/Q125H/Q178H/Q39Y/Q99D/R218S/R42G/S66Y/V115G/W38E)
HLA-DR DRB1*0901 (DR9) = HLA-DR DRB1*0901 (DR9) (Homo sapiens, UniProt P01903+P01911, A100R/A103E/D57H/D86V/F55Y/F60I/F76Y/I96F/K127E/L162R/M171V/P40D/Q125H/Q99R/R33Q/R42F/S133A/S66N/T210M/V115G/W38K/Y107V/Y59G/Y89S)
HLA-DR DRB1*1101 (DR11) = HLA-DR DRB1*1101 (DR11) (Homo sapiens, UniProt P01903+P01911, A100R/A169T/A87E/I96F/K41T/L162R/M171V/P40S/Q125H/Q178H/Q39Y/Q99D/R42S/S66Y/T262R/V115G/W38E); details: DRB1 *1101
HLA-DR DRB1*1302 (DR13) = HLA-DR DRB1*1302 (DR13) (Homo sapiens, UniProt P01903+P01911, A100E/A169T/K41T/L162R/M171V/P40S/Q125H/Q178H/Q39Y/Q99D/R42S/S66N/T262R/V115G/W38E/Y61H); details: DRBI *1302
HLA-DR DRB1*1501 (DR15) = HLA-DR DRB1*1501 (DR15) (Homo sapiens, UniProt P01903+P01911); details: DRBI *1501
HLA-DR DRB4*0101 (DR53) = HLA-DR DRB4*0101 (DR53) (Homo sapiens, UniProt P01903+P13762, G164S); details: DRB4 *0101
HLA-DR DRB5*0101 (DR51) = HLA-DR DRB5*0101 (DR51) (Homo sapiens, UniProt P01903+Q30154); details: DRB5 *0101
HLA-DR DRB1*0301 (DR3) = HLA-DR DRB1*0301 (DR3) (Homo sapiens, UniProt P01903+P01911, A100K/A102G/A103R/A169T/F55Y/I96L/K41T/L162R/M171V/P40S/Q125H/Q178H/Q39Y/R42S/S66N/T106N/T262R/W38E/Y61H)
Chain of HLA-DR DRB1*0301 (DR3) (P01903 26-254 limits assumed, other chains not shown): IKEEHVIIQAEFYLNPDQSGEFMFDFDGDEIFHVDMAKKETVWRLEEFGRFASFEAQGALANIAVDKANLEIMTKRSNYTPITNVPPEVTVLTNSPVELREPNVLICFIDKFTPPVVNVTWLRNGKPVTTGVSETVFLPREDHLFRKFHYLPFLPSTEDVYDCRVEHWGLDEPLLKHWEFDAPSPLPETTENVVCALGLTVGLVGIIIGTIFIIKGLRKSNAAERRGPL

Chain of HLA-DR DRB1*1101 (DR11) (P01903 26-254 limits assumed, other chains not shown): as above
Chain of HLA-DR DRB1*1302 (DR13) (P01903 26-254 limits assumed, other chains not shown): as above

## ALSTLVLNRLKVGLQ
HLA-DR DRB1*0101 (DR1); DRB1 *0101
  pIC50: 7.31
HLA-DR DRB1*0401 (DR4); DRB1 *0401
  pIC50: 6.29
HLA-DR DRB1*0405 (DR4); DRB1 *0405
  pIC50: 5.66
HLA-DR DRB1*0701 (DR7); DRB1 *0701
  pIC50: 6.19
HLA-DR DRB1*0802 (DR8)
  pIC50: 8.40
HLA-DR DRB1*0901 (DR9); DRB1 *0901
  pIC50: 5.66
HLA-DR DRB1*1101 (DR11)
  pIC50: 8.04
HLA-DR DRB1*1302 (DR13)
  pIC50: 8.34
HLA-DR DRB1*1501 (DR15)
  pIC50: 6.72
HLA-DR DRB4*0101 (DR53)
  pIC50: 7.77
HLA-DR DRB5*0101 (DR51)
  pIC50: 8.41

## VASLLTTAEVVVTE
HLA-DR DRB1*0301 (DR3); read-out: DRB1 *0301
  pIC50: 3.87
HLA-DR DRB1*0401 (DR4); read-out: DRB1 *0401
  pIC50: 5.13
HLA-DR DRB1*0405 (DR4); read-out: DRB1 *0405
  pIC50: 5.19
HLA-DR DRB1*0701 (DR7); read-out: DRB1 *0701
  pIC50: 6.43
HLA-DR DRB1*0802 (DR8); read-out: DRB1 *0802
  pIC50: < 3.93
HLA-DR DRB1*0901 (DR9); read-out: DRB1 *0901
  pIC50: 5.71

## CSCC[C@H](NC(=O)[C@H](CCC(N)=O)NC(=O)[C@@H](NC(=O)[C@H](Cc1ccccc1)NC(=O)[C@H](C)NC(=O)[C@@H](NC(=O)CN)[C@@H](C)O)C(C)C)C(=O)N1CCC[C@H]1C(=O)N[C@@H](C)C(=O)N[C@@H](Cc1c[nH]cn1)C(=O)NCC(=O)N[C@@H](CC(C)C)C(=O)N[C@@H](Cc1ccccc1)C(=O)N1CCC[C@H]1C(=O)N[C@@H](Cc1c[nH]c2ccccc12)C(=O)O
HLA-DR DRB1*0101 (DR1); DRB1 *0101
  pIC50: 8.80
HLA-DR DRB1*0301 (DR3)
  pIC50: 4.43
HLA-DR DRB1*0401 (DR4); DRB1 *0401
  pIC50: 8.09
HLA-DR DRB1*0405 (DR4); DRB1 *0405
  pIC50: 7.74
HLA-DR DRB1*0701 (DR7); DRB1 *0701
  pIC50: 7.05
HLA-DR DRB1*0802 (DR8)
  pIC50: 7.00
HLA-DR DRB1*1101 (DR11)
  pIC50: 7.77
HLA-DR DRB1*1302 (DR13)
  pIC50: 5.55
HLA-DR DRB1*1501 (DR15)
  pIC50: 8.92
HLA-DR DRB5*0101 (DR51)
  pIC50: 7.37

## DFSYLQDSDPDSFQD
HLA-DR DRB1*0401 (DR4); DRB1 *0401
  pIC50: 6.58
HLA-DR DRB1*0405 (DR4); DRB1 *0405
  pIC50: < 3.90
HLA-DR DRB1*0701 (DR7); DRB1 *0701
  pIC50: < 3.60
HLA-DR DRB1*0802 (DR8)
  pIC50: < 4.21
HLA-DR DRB1*0901 (DR9); DRB1 *0901
  pIC50: < 3.97
HLA-DR DRB1*1302 (DR13)
  pIC50: < 4.46
HLA-DR DRB1*1501 (DR15)
  pIC50: < 4.04
HLA-DR DRB5*0101 (DR51)
  pIC50: < 4.40

## CC[C@H](C)[C@H](NC(=O)CNC(=O)[C@H](CC(C)C)NC(=O)CNC(=O)[C@H](CCCCN)NC(=O)[C@@H](NC(=O)[C@@H](NC(=O)[C@H](Cc1ccccc1)NC(=O)[C@H](CS)NC(=O)[C@@H](NC(=O)[C@@H](N)CCC(N)=O)C(C)C)[C@@H](C)CC)[C@@H](C)O)C(=O)N[C@@H](CO)C(=O)N[C@@H](Cc1ccc(O)cc1)C(=O)NCC(=O)N[C@@H](CCCNC(=N)N)C(=O)O
HLA-DR DRB1*0301 (DR3)
  pIC50: 3.78
HLA-DR DRB1*0405 (DR4); DRB1 *0405
  pIC50: 6.53
HLA-DR DRB1*0701 (DR7); DRB1 *0701
  pIC50: 7.04
HLA-DR DRB1*0802 (DR8)
  pIC50: 7.39
HLA-DR DRB1*1101 (DR11)
  pIC50: 7.51
HLA-DR DRB1*1302 (DR13)
  pIC50: 7.04
HLA-DR DRB1*1501 (DR15)
  pIC50: 5.45
HLA-DR DRB4*0101 (DR53)
  pIC50: 6.06
HLA-DR DRB5*0101 (DR51)
  pIC50: 5.40

## FLRIVQTRSVEGSTGF
HLA-DR DRB1*0101 (DR1); DRB1 *0101
  pIC50: 8.19
HLA-DR DRB1*0301 (DR3)
  pIC50: 5.40
HLA-DR DRB1*0401 (DR4); DRB1 *0401
  pIC50: 7.96
HLA-DR DRB1*0405 (DR4); DRB1 *0405
  pIC50: 7.00
HLA-DR DRB1*0701 (DR7); DRB1 *0701
  pIC50: 8.01
HLA-DR DRB1*0802 (DR8)
  pIC50: 6.35
HLA-DR DRB1*0901 (DR9); DRB1 *0901
  pIC50: 6.11
HLA-DR DRB1*1302 (DR13)
  pIC50: 8.82
HLA-DR DRB1*1501 (DR15)
  pIC50: 8.01

## CC[C@H](C)[C@H](NC(=O)[C@H](CCCCN)NC(=O)[C@H](CC(N)=O)NC(=O)[C@@H](NC(=O)[C@@H](NC(=O)[C@H](CC(C)C)NC(=O)[C@@H](NC(=O)[C@H](CO)NC(=O)[C@H](CC(C)C)NC(=O)[C@H](C)N)[C@@H](C)O)C(C)C)C(C)C)C(=O)N[C@@H](CCCNC(=N)N)C(=O)NCC(=O)N[C@H](C(=O)N[C@@H](Cc1ccccc1)C(=O)N[C@@H](CCCCN)C(=O)O)[C@@H](C)O
HLA-DR DRB1*0101 (DR1)
  pIC50: 7.12
HLA-DR DRB1*0301 (DR3)
  pIC50: 6.56
HLA-DR DRB1*0401 (DR4)
  pIC50: 6.19
HLA-DR DRB1*0405 (DR4)
  pIC50: 5.44
HLA-DR DRB1*0701 (DR7)
  pIC50: 6.40
HLA-DR DRB1*0802 (DR8)
  pIC50: 7.70
HLA-DR DRB1*0901 (DR9)
  pIC50: 4.74

## GIVEQTTTSITSLYQ
HLA-DR DRB1*0101 (DR1); DRB1 *0101
  pIC50: 5.20
HLA-DR DRB1*0301 (DR3)
  pIC50: 3.97
HLA-DR DRB1*0401 (DR4); DRB1 *0401
  pIC50: 6.92
HLA-DR DRB1*0405 (DR4); DRB1 *0405
  pIC50: 6.09
HLA-DR DRB1*0701 (DR7); DRB1 *0701
  pIC50: 6.10
HLA-DR DRB1*0802 (DR8)
  pIC50: < 4.26

## FAGIRRDGLLLRLVD
HLA-DR DRB1*0301 (DR3); read-out: DRB1 *0301
  pIC50: 8.44
HLA-DR DRB1*0401 (DR4); read-out: DRB1 *0401
  pIC50: 5.15
HLA-DR DRB1*0405 (DR4); read-out: DRB1 *0405
  pIC50: < 5.47
HLA-DR DRB1*0701 (DR7); read-out: DRB1 *0701
  pIC50: 4.39
HLA-DR DRB1*0802 (DR8); read-out: DRB1 *0802
  pIC50: 5.12

## YLVTGERGFFYTKYT
HLA-DR DRB1*0101 (DR1); read-out: DRB1 *0101
  pIC50: 5.94
HLA-DR DRB1*0301 (DR3); read-out: DRB1 *0301
  pIC50: 5.32
HLA-DR DRB1*0401 (DR4); read-out: DRB1 *0401
  pIC50: < 4.69
HLA-DR DRB1*0405 (DR4); read-out: DRB1 *0405
  pIC50: < 4.52
HLA-DR DRB1*0701 (DR7); read-out: DRB1 *0701
  pIC50: 7.11
HLA-DR DRB1*0802 (DR8); read-out: DRB1 *0802
  pIC50: 5.37
HLA-DR DRB1*0901 (DR9); read-out: DRB1 *0901
  pIC50: 3.71

## CYSLYGTTLEQQYNK
HLA-DR DRB1*0101 (DR1); DRB1 *0101
  pIC50: 5.96
HLA-DR DRB1*0405 (DR4); DRB1 *0405
  pIC50: 7.15
HLA-DR DRB1*0701 (DR7); DRB1 *0701
  pIC50: < 5.00
HLA-DR DRB1*0802 (DR8)
  pIC50: 4.59
HLA-DR DRB1*1101 (DR11)
  pIC50: < 4.83
HLA-DR DRB1*1302 (DR13)
  pIC50: < 4.86
HLA-DR DRB1*1501 (DR15)
  pIC50: 5.30
HLA-DR DRB4*0101 (DR53)
  pIC50: 6.72
HLA-DR DRB5*0101 (DR51)
  pIC50: < 4.97

## CCTSICSLYQLENY
HLA-DR DRB1*0301 (DR3); read-out: DRB1 *0301
  pIC50: 4.15
HLA-DR DRB1*0401 (DR4); read-out: DRB1 *0401
  pIC50: 5.08
HLA-DR DRB1*0405 (DR4); read-out: DRB1 *0405
  pIC50: 6.20
HLA-DR DRB1*0701 (DR7); read-out: DRB1 *0701
  pIC50: 4.45
HLA-DR DRB1*0802 (DR8); read-out: DRB1 *0802
  pIC50: < 4.26
HLA-DR DRB1*0901 (DR9); read-out: DRB1 *0901
  pIC50: 4.53
